Series [1] relates to HepG2 cells. Kind of series: Colony formation assay. To be noted: 7 days. In kind it is cell-based, human. The protocol:
A colony formation assay is used to assess the ability of adherent cells to proliferate and form cell colonies on a plate, making it one of the key methods for evaluating cell proliferation. We also employed the colony formation assay to further confirm that compounds 11m and 11t can inhibit liver cancer cell proliferation (as shown in Figure 5). HepG2 cells were treated with low, medium, and high concentrations (2, 4, and 8 μmol/L) of the compounds for 7 days, followed by counting the number of cell colonies and analyzing the proliferation inhibition rate.
HepG2 cells were seeded in 6-well plates at a density of 500 cells per well and incubated at 37 °C for 24 h, followed by treatment with 11m or 11t (2, 4, and 8 μM) for 24 h. The medium was then replaced with fresh culture medium, and after 7 days, the culture medium was removed and washed with PBS. Cells were fixed with 4% paraformaldehyde at room temperature for 20 min, stained with 0.1% crystal violet staining solution at room temperature for 20 min, and excess staining solution was washed off with distilled water. The plates were dried at 37 °C, photographed, and the number of colonies was counted using ImageJ.

The test system of another series is normal liver cells (L02). Kind of series: CCK8 toxicity against normal liver cells (L02). Particulars: Figure 3.
In series [2] the test system is HepG2 cells. Kind of series: Annexin V-FITC/PI dual staining, flow cytometry apoptosis. In kind it is cell-based, human. Particulars: 48 h. As for the experimental part:
HepG2 cells were treated with DMSO or different concentrations of 11m and 11t for 48 h, followed by staining with Annexin-V and PI. The proportion of apoptotic cells was then analyzed using flow cytometry. […] Compared to the control group, the proportion of apoptotic cells increased gradually with increasing drug concentrations (p < 0.01, p < 0.05).
HepG2 cells were seeded in 6-well plates at a density of […] and incubated for 24 h. They were then treated with 11m or 11t at concentrations of 2, 4, and 8 μM for 48 h. After digestion with trypsin without EDTA and washing with PBS, the cells were resuspended in 500 µL Binding Buffer at a concentration of 1 × 10^6 cells/mL. Then, 5 μL of Annexin V-FITC was added, mixed well, followed by the addition of 5 μL Propidium Iodide, mixed gently, and incubated in the dark at room temperature (25 °C) for 10 min. Detection was performed using a flow cytometer (BD Accuri™ C6 Plus) within 1 h.
A general note: In flow cytometry, cells or beads pass a laser one at a time.

Series [3] deals with HepG2 cells. Kind of series: Transwell migration assay. In kind it is cell-based, human. Particulars: HepG2, 2, 4, 8 μM, 48 h, vs control, p < 0.01. The source says: (§1) To investigate the effect of the compounds on the migration of wild-type liver cancer cells, we conducted wound healing and Transwell assays to assess changes in the migration ability of HepG2 cells after treatment with compounds 11m and 11t. […] The Transwell migration assay, another important method for evaluating cell migration, involves seeding tumor cells in a chamber and assessing their migration ability by counting the number of cells that pass through the membrane. […] These findings indicate that compounds 11m and 11t can inhibit the migration ability of liver cancer cells in a concentration-dependent manner.
HepG2 cells were starved in serum-free Gibco DMEM for 24 h, then seeded in the upper chamber of a 24-well Transwell plate (Corning Inc., Corning, NY, USA) at a density of 5 × 10^5 cells/mL. 11m or 11t was added to achieve final concentrations of 0, 2, 4, and 8 μM. The upper chamber’s total volume was 200 μL, while the lower chamber contained 600 μL of Gibco DMEM with 20% serum. After 48 h of incubation, the culture medium was washed off with PBS, and the cells were fixed with 4% paraformaldehyde at room temperature for 20 min. […] Images were taken under an inverted microscope, and quantification was performed using ImageJ.

The test system of series [4] is HepG2 cells. Put plainly: Scratch wound healing assay. Format: cell-based, human.
Description: as §1
HepG2 cells were seeded in 24-well plates, and when the cell density reached 95%, a vertical scratch was made along the edge of the plate cover using a yellow pipette tip. After washing with PBS, images of the scratches were taken at 0 h under a microscope, and each well was treated with 11m or 11t (0, 2, 4, and 8 μM) and incubated in a cell culture incubator. Images were taken at 12, 24, and 48 h after the scratch was made.

Series [5] relates to Bcl-2/Caspase-3/PARP signaling pathway. Kind of series: Western blot of apoptosis-related proteins in HepG2 cells. In kind it is cell-based, human. Particulars: 48 h; for expression level of Bcl-2 / expression level of Caspase-3 / expression level of Caspase-9 / expression level of PARP / level of cleaved Caspase-3 / level of cleaved PARP: HepG2, 2, 4, 8 μM; for expression of Bax: HepG2, with increasing drug concentration. The text has this:
We conducted an in-depth study on the mechanisms of apoptosis induced by compounds 11m and 11t (Figure 9). The Bcl-2 protein family is located upstream in the apoptosis signaling pathway, with Bcl-2 exerting anti-apoptotic and pro-proliferative effects by inhibiting the release of cytochrome C (cyt-c) from the mitochondria. Previous studies have reported that many anticancer drugs exert pro-apoptotic effects by downregulating Bcl-2. When apoptosis occurs, the expression level of Bcl-2 is suppressed, cyt-c is released, and it binds to apoptotic protease activating factor (Apaf-1) to form the apoptosome, triggering a cascade reaction involving the Caspase family proteins. The apoptosome first promotes the activation of Caspase-9, which in turn activates Caspase-3, forming cleaved Caspase-3. Cleaved Caspase-3 further activates downstream PARP proteins, ultimately promoting apoptosis. […] After treating HepG2 cells with different concentrations of the compounds for 48 h, we extracted cellular proteins and used Western blotting to detect changes in the expression of apoptosis-related proteins. […] The expression levels of Caspase-3, Caspase-9, and PARP decreased with increasing drug concentration, whereas the levels of cleaved Caspase-3 and cleaved PARP increased.
HepG2 cells were seeded in 6-well plates and incubated for 24 h. They were then treated with 11m or 11t at concentrations of 2, 4, or 8 μM for 48 h. The cells were harvested, and cytoplasmic and nuclear proteins were extracted using cell lysis buffer from Beyotime Biotechnology (Shanghai, China). Protein supernatants were mixed with loading buffer, denatured at 100 °C for 10 min, and quantified using BCA. Equal amounts of protein, along with molecular weight markers, were loaded onto a 12% SDS-PAGE gel and separated by electrophoresis for 2 h. The separated proteins were transferred onto NC membranes, and nonspecific binding sites on the membranes were blocked with 5% skim milk. Membranes were incubated with primary antibodies overnight at 4 °C, followed by incubation with HRP-conjugated secondary antibodies (goat anti-rabbit or goat anti-mouse IgG) at room temperature for 2 h. Protein bands were visualized on NC membranes using ECL ultra-sensitive chemiluminescence solution and a Bio-Rad gel imaging and analysis system.

In the case of `COc1cc2ncnc(Nc3cccc(-c4cn(Cc5ccc(I)cc5)nn4)c3)c2cc1OCCCN1CCOCC1` [Compound 11m, N-(3-(1-(4-iodobenzyl)-1H-1,2,3-triazol-4-yl)phenyl)-7-methoxy-6-(3-morpholinopropoxy)quinazolin-4-amine], the “colony formation in HepG2 cells” value with HepG2 cells [1] (4 μM) was “began to noticeably inhibit colony formation”; in the series on HepG2 cells [1] (8 μM) it was “almost completely suppressed”. Besides, the “toxicity against normal liver cells (L02)” value with normal liver cells (L02) is on record as “favorable safety profile”. In addition, the “total proportion of apoptotic HepG2 cells” value in the series on HepG2 cells [2] (2 μM) is 1.59%; in the series with HepG2 cells [2] (4 μM), 9.46%; in the series on HepG2 cells [2] (8 μM), 31.66%. Besides, the “number of cells that migrated through the microporous membrane” value with HepG2 cells [3] is listed as “significantly reduced”. The wound-healing rate is 14.32% in the series with HepG2 cells [4] (HepG2, 2 μM, 12 h); 20.33% in the series on HepG2 cells [4] (HepG2, 2 μM, 24 h); 41.13% in the series on HepG2 cells [4] (HepG2, 2 μM, 48 h); 13.89% in the series on HepG2 cells [4] (HepG2, 4 μM, 12 h); 20.60% in the series with HepG2 cells [4] (HepG2, 4 μM, 24 h); 36.35% with HepG2 cells [4] (HepG2, 4 μM, 48 h). Moreover, the wound-healing rate in the series on HepG2 cells [4] (HepG2, 8 μM, 12 h) turned out to be 8.96%; in the series on HepG2 cells [4] (HepG2, 8 μM, 24 h), 16.39%; with HepG2 cells [4] (HepG2, 8 μM, 48 h), 18.48%. In addition, in series [5], the “expression level of Bcl-2” value is “decreased”. Also, the “expression level of Caspase-3” value in series [5] is “decreased”. In series [5], the “expression level of Caspase-9” value is listed as “decreased”. For the same compound, in series [5], the “expression level of PARP” value is recorded as “decreased”. The “level of cleaved Caspase-3” value in series [5] was “increased”. Further, the “level of cleaved PARP” value in series [5] was “increased”. Besides, the “expression of Bax” value in series [5] is recorded as “increased”.
For `COc1cc2ncnc(Nc3cccc(-c4cn(Cc5cccc(I)c5)nn4)c3)c2cc1OCCCN1CCOCC1` [Compound 11t, N-(3-(1-(3-iodobenzyl)-1H-1,2,3-triazol-4-yl)phenyl)-7-methoxy-6-(3-morpholinopropoxy)quinazolin-4-amine], the “colony formation in HepG2 cells” value in the series on HepG2 cells [1] (4 μM) is reported as “began to noticeably inhibit colony formation”; in the series on HepG2 cells [1] (8 μM), “almost completely suppressed”. Also, the “toxicity against normal liver cells (L02)” value with normal liver cells (L02) is listed as “favorable safety profile”. The “total proportion of apoptotic HepG2 cells” value in the series on HepG2 cells [2] (2 μM) amounted to 13.44%; with HepG2 cells [2] (4 μM) it was 33.57%; in the series with HepG2 cells [2] (8 μM), 62.82%. For the same compound, in the series on HepG2 cells [3], the “number of cells that migrated through the microporous membrane” value is “significantly reduced”. The wound-healing rate was determined as 11.03% in the series with HepG2 cells [4] (HepG2, 2 μM, 12 h); 16.02% in the series on HepG2 cells [4] (HepG2, 2 μM, 24 h); 35.36% in the series with HepG2 cells [4] (HepG2, 2 μM, 48 h); 14.18% with HepG2 cells [4] (HepG2, 4 μM, 12 h); 25.67% in the series on HepG2 cells [4] (HepG2, 4 μM, 24 h); 33.66% in the series on HepG2 cells [4] (HepG2, 4 μM, 48 h). The wound-healing rate with HepG2 cells [4] (HepG2, 8 μM, 12 h) is reported as 9.87%; with HepG2 cells [4] (HepG2, 8 μM, 24 h), 13.26%; in the series on HepG2 cells [4] (HepG2, 8 μM, 48 h), 19.54%. In addition, the “expression level of Bcl-2” value in series [5] is given as “decreased”. Also, in series [5], the “expression level of Caspase-3” value is “decreased”. The “expression level of Caspase-9” value in series [5] is “decreased”. Moreover, the “expression level of PARP” value in series [5] is “decreased”. The “level of cleaved Caspase-3” value in series [5] was “increased”. In addition, in series [5], the “level of cleaved PARP” value is “increased”. Besides, the “expression of Bax” value in series [5] is “increased”.

Values taken from paper PMC11597353, “Synthesis of Novel Gefitinib-Conjugated 1,2,3-Triazole Derivatives and Their Effect of Inducing DNA Damage and Apoptosis in Tumor Cells” (Molecules, 2024).
